This passage reports T/C results from PubChem BioAssay AID248 (DTP/NCI, 2004).

This test relates to L1210 leukemia ip in BDF1 mice, survival T/C. The test can be described thus: NCI In Vivo Anticancer Drug Screen. Data for tumor model L1210 Leukemia (intraperitoneal) in B6D2F1 (BDF1) mice. As to conditions: endpoint: mean survival time, higher = longer survival. An outline of the steps:
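Read-out is survival time, reported as the treated-group measurement over the vehicle-control measurement.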

Where [1] appears, read: dose: 100.0 mg/kg/injection, schedule: Q04DX003 (ip), vehicle: saline.
[2] abbreviates: dose: 200.0 mg/kg/injection, schedule: Q04DX003 (ip), vehicle: saline.
[3] abbreviates: dose: 400.0 mg/kg/injection, schedule: Q04DX003 (ip), vehicle: saline.
[4] abbreviates: dose: 100.0 mg/kg/injection, schedule: Q01DX009 (ip), vehicle: saline.
Where [5] appears, read: dose: 200.0 mg/kg/injection, schedule: Q01DX009 (ip), vehicle: saline.
Setting [6] is: dose: 12.5 mg/kg/injection, schedule: Q01DX009 (ip), vehicle: Klucel (hydroxypropylcellulose) (HPC).
Setting [7] is: dose: 25.0 mg/kg/injection, schedule: Q01DX009 (ip), vehicle: Klucel (hydroxypropylcellulose) (HPC).
[8] abbreviates: dose: 100.0 mg/kg/injection, schedule: Q01DX009 (ip), vehicle: Klucel (hydroxypropylcellulose) (HPC).
[9] abbreviates: dose: 200.0 mg/kg/injection, schedule: Q01DX009 (ip), vehicle: Klucel (hydroxypropylcellulose) (HPC).
The mark [10] stands for this setting: dose: 100.0 mg/kg/injection, schedule: Q04DX002 (ip), vehicle: Klucel (hydroxypropylcellulose) (HPC).
[11] abbreviates: dose: 200.0 mg/kg/injection, schedule: Q04DX002 (ip), vehicle: Klucel (hydroxypropylcellulose) (HPC).
Setting [12] is: dose: 400.0 mg/kg/injection, schedule: Q04DX002 (ip), vehicle: Klucel (hydroxypropylcellulose) (HPC).
Setting [13] is: dose: 100.0 mg/kg/injection, schedule: Q01DX001 (ip), vehicle: saline.
[14] abbreviates: dose: 200.0 mg/kg/injection, schedule: Q01DX001 (ip), vehicle: saline.
The mark [15] stands for this setting: dose: 400.0 mg/kg/injection, schedule: Q01DX001 (ip), vehicle: saline.
[16] abbreviates: dose: 50.0 mg/kg/injection, schedule: Q01DX009 (ip), vehicle: Klucel (hydroxypropylcellulose) (HPC).

Several values for one entry are separate records, joined by “and”; a condition that tells them apart may be missing. Identical values can stand only once. Inconclusive results and toxic doses are left out.

`CCOCc1c(COc2ccc(Cl)cc2)n(C)c2ccccc12`: the T/C runs as follows: (dose: 100.0 mg/kg/injection, schedule: Q04DX002 (ip), vehicle: saline) 98 % of control; (dose: 200.0 mg/kg/injection, schedule: Q04DX002 (ip), vehicle: saline) 98 % of control; (dose: 400.0 mg/kg/injection, schedule: Q04DX002 (ip), vehicle: saline) 104 % of control.

For `O=C1CCC2(CC2)C(=O)O1`, the T/C reads like this: under setting [1], 91 % of control; under setting [2], 95 % of control; under setting [3], 91 % of control.

For `O=C(Nc1ccc(C2=NCCN2)cc1)c1ccc2cc(C(=O)Nc3ccc(C4=NCCN4)cc3)ccc2c1`, the T/C (dose: 15.0 mg/kg/injection, schedule: Q01DX Z (ip), vehicle: carboxymethylcellulose (CMC)) was 123 % of control and the T/C (dose: 120.0 mg/kg/injection, schedule: Q01DX Z (ip), vehicle: carboxymethylcellulose (CMC)) is 120 % of control.

Regarding `NC(N)=NCCCCCC(=O)Oc1ccc([N+](=O)[O-])cc1`, the T/C was 105 % of control (dose: 50.0 mg/kg/injection, schedule: Q01DX009 (ip), vehicle: saline); 99 % of control and 100 % of control under setting [4]; 92 % of control under setting [1]; 100 % of control and 101 % of control under setting [5]; 92 % of control under setting [2].

As for `CC/C(C)=N\NC(N)=S`, the T/C runs as follows: (dose: 6.25 mg/kg/injection, schedule: Q01DX009 (ip), vehicle: Klucel (hydroxypropylcellulose) (HPC)) 91 % of control; under setting [6], 92 % of control; (dose: 12.5 mg/kg/injection, schedule: Q04DX002 (ip), vehicle: Klucel (hydroxypropylcellulose) (HPC)) 92 % of control; (dose: 25.0 mg/kg/injection, schedule: Q04DX002 (ip), vehicle: Klucel (hydroxypropylcellulose) (HPC)) 98 % of control.

`Cn1cnc([N+](=O)[O-])c1S(=O)(=O)NCN1CCOCC1`: the T/C under setting [7] is 117 % of control, the T/C under setting [8] is 113 % of control and the T/C under setting [9] was 113 % of control.

With `Cc1ccc(S(=O)(=O)NN)cc1`, the T/C was 97 % of control (dose: 100.0 mg/kg/injection, schedule: Q04DX003 (ip), vehicle: saline with Tween-80); 101 % of control (dose: 200.0 mg/kg/injection, schedule: Q04DX003 (ip), vehicle: saline with Tween-80); 88 % of control (dose: 400.0 mg/kg/injection, schedule: Q04DX003 (ip), vehicle: saline with Tween-80).

On to `O=C(Nc1ccc(C2=NCCN2)cc1)c1cc(C(=O)Nc2ccc(C3=NCCN3)cc2)cc([N+](=O)[O-])c1`, for which the T/C is, setting by setting: (dose: 111.0 mg/kg/injection, schedule: Q01DX Z (ip), vehicle: methylcellulose (MC)) 100 % of control; (dose: 167.0 mg/kg/injection, schedule: Q01DX Z (ip), vehicle: methylcellulose (MC)) 104 % of control; (dose: 250.0 mg/kg/injection, schedule: Q01DX Z (ip), vehicle: methylcellulose (MC)) 105 % of control and 207 % of control; (dose: 375.0 mg/kg/injection, schedule: Q01DX Z (ip), vehicle: methylcellulose (MC)) 168 % of control; (dose: 512.0 mg/kg/injection, schedule: Q01DX Z (ip), vehicle: methylcellulose (MC)) 234 % of control; (dose: 768.0 mg/kg/injection, schedule: Q01DX Z (ip), vehicle: methylcellulose (MC)) 268 % of control.

Take `COc1cc(C=O)ccc1OCCCOc1ccc(C=O)cc1OC`: the T/C is 104 % of control (dose: 50.0 mg/kg/injection, schedule: Q01DX009 (ip), vehicle: saline with Tween-80); 93 % of control (dose: 100.0 mg/kg/injection, schedule: Q01DX009 (ip), vehicle: saline with Tween-80); 101 % of control (dose: 200.0 mg/kg/injection, schedule: Q01DX009 (ip), vehicle: saline with Tween-80).

As to `Cc1ccccc1NC(=O)Nc1ccc(S(N)(=O)=O)cc1`, the T/C is, setting by setting: under setting [8], 104 % of control; under setting [10], 86 % of control; under setting [9], 101 % of control; under setting [11], 93 % of control; (dose: 400.0 mg/kg/injection, schedule: Q01DX009 (ip), vehicle: Klucel (hydroxypropylcellulose) (HPC)) 112 % of control; under setting [12], 86 % of control.

For `CN(C)c1ccc(S(=O)(=O)c2ccc(N(C)C)c([N+](=O)[O-])c2)cc1[N+](=O)[O-]`, the T/C (dose: 100.0 mg/kg/injection, schedule: Q04DX002 (ip), vehicle: DMSO) is 107 % of control; the T/C (dose: 200.0 mg/kg/injection, schedule: Q04DX002 (ip), vehicle: DMSO) is 103 % of control; the T/C (dose: 400.0 mg/kg/injection, schedule: Q04DX002 (ip), vehicle: DMSO) is 103 % of control.

`COc1ccc2c3c(ccc2c1)C(=O)C(C)(C#N)CC3` (centres undefined): the T/C is 88 % of control under setting [4]; 89 % of control under setting [1]; 91 % of control under setting [5]; 89 % of control under setting [2]; 95 % of control (dose: 400.0 mg/kg/injection, schedule: Q01DX009 (ip), vehicle: saline); 94 % of control under setting [3].

As to `Cc1ccc(S(=O)(=O)N2CCN(C)CC2)cc1`, the T/C by setting is: under setting [13], 103 % of control; under setting [14], 97 % of control; under setting [15], 97 % of control.

With `Cn1cnc2[nH]c(Cl)nc(=S)c21`, the T/C is 95 % of control under setting [13], 92 % of control under setting [14] and 95 % of control under setting [15].

As for `OCC1SC(n2cnc3c(=S)nc[nH]c32)C(O)C1O` (centres undefined), the T/C (dose: 200.0 mg/kg/injection, schedule: Q01DX005 (ip), vehicle: saline) is 103 % of control.

`O=C1C=CC(=NBr)C=C1`: the T/C under setting [6] was 89 % of control, the T/C under setting [7] was 92 % of control and the T/C under setting [16] is 89 % of control.

For `NC(=S)N/N=C/c1ccc(Cl)cc1`, the T/C reads like this: under setting [7], 103 % of control; under setting [16], 101 % of control.

`COC(=O)Cc1c(C(=O)OC)c(O)cc(O)c1C(=O)OC`: the T/C by setting is: (dose: 50.0 mg/kg/injection, schedule: Q01DX001 (ip), vehicle: carboxymethylcellulose (CMC)) 100 % of control; (dose: 100.0 mg/kg/injection, schedule: Q01DX001 (ip), vehicle: carboxymethylcellulose (CMC)) 97 % of control; (dose: 200.0 mg/kg/injection, schedule: Q01DX001 (ip), vehicle: carboxymethylcellulose (CMC)) 100 % of control; (dose: 400.0 mg/kg/injection, schedule: Q01DX001 (ip), vehicle: carboxymethylcellulose (CMC)) 100 % of control.

In the case of `C=C(Cl)CN1C(=O)c2ccccc2C1=O`, the T/C is, setting by setting: under setting [10], 93 % of control; under setting [11], 93 % of control; under setting [12], 101 % of control.

As to `Cc1ccc(Nc2cc(=S)nc(N)[nH]2)cc1C`, the T/C is, setting by setting: (dose: 100.0 mg/kg/injection, schedule: Q01DX Z (ip), vehicle: methylcellulose (MC)) 103 % of control; (dose: 200.0 mg/kg/injection, schedule: Q01DX Z (ip), vehicle: methylcellulose (MC)) 95 % of control.

With `C=CCc1ccc(C)c(C)c1O`, the T/C (dose: 100.0 mg/kg/injection, schedule: Q01DX009 (sc), vehicle: olive oil, sesame oil, peanut oil) was 101 % of control; the T/C (dose: 100.0 mg/kg/injection, schedule: Q04DX003 (sc), vehicle: olive oil, sesame oil, peanut oil) was 99 % of control; the T/C (dose: 200.0 mg/kg/injection, schedule: Q01DX009 (sc), vehicle: olive oil, sesame oil, peanut oil) was 101 % of control; the T/C (dose: 200.0 mg/kg/injection, schedule: Q04DX003 (sc), vehicle: olive oil, sesame oil, peanut oil) was 97 % of control; the T/C (dose: 400.0 mg/kg/injection, schedule: Q01DX009 (sc), vehicle: olive oil, sesame oil, peanut oil) was 101 % of control; the T/C (dose: 400.0 mg/kg/injection, schedule: Q04DX003 (sc), vehicle: olive oil, sesame oil, peanut oil) was 91 % of control.
